Test results: ChEMBL document CHEMBL5385853, “Design, synthesis, and biological evaluation of novel quinoline derivatives as small molecule mutant EGFR inhibitors targeting resistance in NSCLC: In vitro screening and ADME predictions” (Eur J Med Chem, 2023)
The source made the active and inactive calls. The calls are words filed in the database; no cut-off is given here.

Key:
A549 [1] = assay: Anticancer activity against human A549 cells assessed as reduction in cell viability measured after 72 hrs by MTT assay; assay type: functional, cell-based; conditions: A549, 72 h
A549 [2] = assay: Anticancer activity against human A549 cells overexpressing wild type EGFR assessed as reduction in cell viability measured after 72 hrs by MTT assay; assay type: functional, cell-based; conditions: A549, 72 h
NCI-H1975 = assay: Anticancer activity against human NCI-H1975 cells harboring EGFR L858R/T790M mutant assessed as reduction in cell viability measured after 72 hrs by MTT assay; assay type: functional, cell-based; conditions: NCI-H1975, 72 h
HCC827 = assay: Anticancer activity against human HCC827 cells harboring EGFR E746_A750 del mutant assessed as reduction in cell viability measured after 72 hrs by MTT assay; assay type: functional, cell-based; conditions: HCC827, 72 h
[3] = target: Epidermal growth factor receptor (Homo sapiens, UniProt P00533, L858R/T790M); assay: Inhibition of EGFR L858R/T790M mutant (unknown origin) using poly (Glu,Tyr) as substrate incubated for 40 mins in presence of ATP by Kinase-Glo luminescent analysis
Sequence of Epidermal growth factor receptor (Homo sapiens, UniProt P00533, L858R/T790M) (P00533 25-1210 T790M/L858R limits assumed): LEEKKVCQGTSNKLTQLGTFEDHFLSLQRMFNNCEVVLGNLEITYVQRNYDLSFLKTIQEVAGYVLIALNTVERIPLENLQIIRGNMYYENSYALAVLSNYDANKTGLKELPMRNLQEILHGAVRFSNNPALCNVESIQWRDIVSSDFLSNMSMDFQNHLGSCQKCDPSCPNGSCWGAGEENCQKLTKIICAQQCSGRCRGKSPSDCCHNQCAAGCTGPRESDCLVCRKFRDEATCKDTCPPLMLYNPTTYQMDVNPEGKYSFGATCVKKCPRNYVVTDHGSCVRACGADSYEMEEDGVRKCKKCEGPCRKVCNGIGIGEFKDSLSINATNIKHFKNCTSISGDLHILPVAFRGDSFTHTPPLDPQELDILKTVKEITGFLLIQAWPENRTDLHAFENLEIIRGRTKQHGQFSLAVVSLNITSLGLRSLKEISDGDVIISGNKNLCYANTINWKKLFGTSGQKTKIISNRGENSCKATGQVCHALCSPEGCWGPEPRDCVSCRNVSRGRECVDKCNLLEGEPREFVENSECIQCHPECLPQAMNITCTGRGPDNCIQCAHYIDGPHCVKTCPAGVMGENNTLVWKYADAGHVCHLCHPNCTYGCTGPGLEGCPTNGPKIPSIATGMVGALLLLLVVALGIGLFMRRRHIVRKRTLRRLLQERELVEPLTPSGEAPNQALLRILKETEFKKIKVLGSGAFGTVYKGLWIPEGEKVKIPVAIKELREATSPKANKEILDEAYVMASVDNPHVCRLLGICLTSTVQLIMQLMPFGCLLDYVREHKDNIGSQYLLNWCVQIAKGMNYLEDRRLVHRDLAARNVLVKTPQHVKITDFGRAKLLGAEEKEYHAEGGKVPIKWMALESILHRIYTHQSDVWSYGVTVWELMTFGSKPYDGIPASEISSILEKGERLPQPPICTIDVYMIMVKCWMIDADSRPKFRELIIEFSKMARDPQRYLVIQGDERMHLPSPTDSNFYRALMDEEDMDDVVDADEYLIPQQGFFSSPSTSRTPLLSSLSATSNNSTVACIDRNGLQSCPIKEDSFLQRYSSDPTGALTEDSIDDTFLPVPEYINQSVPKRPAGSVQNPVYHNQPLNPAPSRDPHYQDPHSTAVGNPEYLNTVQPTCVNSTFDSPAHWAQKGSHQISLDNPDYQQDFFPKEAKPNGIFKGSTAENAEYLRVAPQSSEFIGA

[4] = Cytotoxicity against human BEAS-2B cells assessed as reduction in cell viability measured after 72 hrs by MTT assay; assay type: toxicity, cell-based
[5] = test system: Epidermal growth factor receptor (Homo sapiens), P00533 [UNDEFINED MUTATION]; assay: Inhibition of EGFR E746_A750 del mutant in human HCC827 cells assessed as inhibition of Akt phosphorylation at 0.01 to 1 uM by western blot analysis; assay type: cell-based; conditions: dose 0.01-1 µM
Sequence of Epidermal growth factor receptor (Homo sapiens), P00533 [UNDEFINED MUTATION] (P00533 whole entry, looked up, stated change not applied): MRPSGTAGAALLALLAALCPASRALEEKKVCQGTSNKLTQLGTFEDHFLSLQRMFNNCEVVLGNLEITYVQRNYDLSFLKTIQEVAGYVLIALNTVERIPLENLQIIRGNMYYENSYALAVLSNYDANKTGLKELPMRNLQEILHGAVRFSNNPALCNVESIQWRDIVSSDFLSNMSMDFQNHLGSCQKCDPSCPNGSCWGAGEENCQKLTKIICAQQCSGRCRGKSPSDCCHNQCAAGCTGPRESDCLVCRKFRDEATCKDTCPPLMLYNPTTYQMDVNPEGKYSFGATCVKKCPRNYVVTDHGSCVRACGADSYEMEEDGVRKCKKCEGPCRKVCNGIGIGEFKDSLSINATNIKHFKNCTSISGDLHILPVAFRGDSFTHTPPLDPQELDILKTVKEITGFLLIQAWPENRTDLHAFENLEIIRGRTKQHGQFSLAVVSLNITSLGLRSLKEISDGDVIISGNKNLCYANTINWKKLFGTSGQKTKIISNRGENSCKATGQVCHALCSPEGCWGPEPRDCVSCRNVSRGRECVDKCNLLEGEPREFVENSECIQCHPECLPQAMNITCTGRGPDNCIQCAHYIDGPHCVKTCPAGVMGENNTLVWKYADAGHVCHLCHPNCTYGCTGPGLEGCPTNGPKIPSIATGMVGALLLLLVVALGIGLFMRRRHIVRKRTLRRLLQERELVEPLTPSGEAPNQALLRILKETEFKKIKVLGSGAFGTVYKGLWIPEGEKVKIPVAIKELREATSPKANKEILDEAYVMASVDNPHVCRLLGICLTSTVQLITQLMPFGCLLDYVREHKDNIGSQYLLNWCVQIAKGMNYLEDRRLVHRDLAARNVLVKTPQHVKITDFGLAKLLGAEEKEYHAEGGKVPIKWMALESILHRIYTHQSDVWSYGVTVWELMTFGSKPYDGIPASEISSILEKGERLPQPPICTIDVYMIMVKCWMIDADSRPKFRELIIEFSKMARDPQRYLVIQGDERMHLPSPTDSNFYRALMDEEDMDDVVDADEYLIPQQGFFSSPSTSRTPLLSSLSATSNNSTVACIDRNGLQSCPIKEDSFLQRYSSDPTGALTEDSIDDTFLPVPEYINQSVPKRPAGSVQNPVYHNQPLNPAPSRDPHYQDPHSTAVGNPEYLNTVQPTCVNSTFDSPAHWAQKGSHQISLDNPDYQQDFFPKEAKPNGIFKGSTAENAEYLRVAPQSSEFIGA

NSCLC [6] = assay: Induction of apoptosis in human NSCLC assessed as early apoptotic cells at IC50 measured after 24 to 48 hrs by AnnexinV-FITC/PI staining based flow cytometry (reference value: 2.1%); assay type: functional; conditions: time 24-48 hrs
NSCLC [7] = assay: Induction of apoptosis in human NSCLC assessed as late apoptotic cells at IC50 measured after 24 to 48 hrs by AnnexinV-FITC/PI staining based flow cytometry (reference value: 1.1%); assay type: functional; conditions: time 24-48 hrs
[8] = target: Epidermal growth factor receptor (Homo sapiens, UniProt P00533); assay: Inhibition of EGFR (unknown origin)
Sequence of Epidermal growth factor receptor (Homo sapiens, UniProt P00533) (P00533 whole entry): as the sequence (P00533 whole entry, looked up, stated change not applied) above

SMILES | IC50 (A549 [1]) [µM] | IC50 (A549 [2]) [µM] | IC50 (NCI-H1975) [µM] | IC50 (HCC827) [µM] | IC50 [3] [µM] | IC50 at 72 h [4] [µM] | inhibition [5] | Activity (NSCLC [6]) [%] | Activity (NSCLC [7]) [%] | IC50 [8] [µM]
CCOC(=O)c1c(-n2ccnc2)nc2ccc(Br)cc2c1N1CCN(c2ccccc2NC(=O)c2cc(F)ccc2Br)CC1 | 7.01 | 4.82 | 2.69 | 0.18 |  |  |  |  |  | 
CCOC(=O)c1c(-n2ccnc2)nc2ccc(Br)cc2c1N1CCN(c2ccccc2NC(=O)c2ccccc2F)CC1 | 8.32 | 4.88 | 2.81 | 0.17 |  |  |  |  |  | 
CCOC(=O)c1c(-n2ccnc2)nc2ccc(Br)cc2c1N1CCN(c2ccccc2NC(=O)c2cccc(OC)c2OC)CC1 | 11.2 | 8.73 | 6.14 | 0.52 |  |  |  |  |  | 
CCOC(=O)c1c(-n2ccnc2)nc2ccc(Br)cc2c1N1CCN(c2ccccc2NC(=O)c2cccc(Br)c2)CC1 | 8.58 | 4.92 | 2.82 | 0.16 |  |  |  |  |  | 
CCCc1cc(C(=O)Nc2ccccc2N2CCN(c3c(C(=O)OCC)c(-n4ccnc4)nc4ccc(Br)cc34)CC2)n(C)n1 | 11.5 | 8.22 | 9.36 | 0.88 |  |  |  |  |  | 
CCOC(=O)c1c(-n2ccnc2)nc2ccc(Br)cc2c1N1CCN(c2ccccc2NS(=O)(=O)c2ccc(OC)cc2)CC1 | 10.2 | 6.11 | 4.8 | 0.38 |  |  |  |  |  | 
CCOC(=O)c1c(-n2ccnc2)nc2ccc(Br)cc2c1N1CCN(c2ccccc2NS(=O)(=O)c2ccc(F)cc2)CC1 | 4.22 | 1.88 | 0.82 | 0.062 | 0.152 | 86.5 |  |  |  | 
CCOC(=O)c1c(-n2ccnc2)nc2ccc(Br)cc2c1N1CCN(c2ccccc2NS(=O)(=O)c2ccc(Cl)cc2)CC1 | 8.36 | 5.64 | 2.86 | 0.22 |  |  |  |  |  | 
CCOC(=O)c1c(-n2ccnc2)nc2ccc(Br)cc2c1N1CCN(c2ccccc2NS(=O)(=O)c2ccc(C(C)(C)C)cc2)CC1 | 15.1 | 10.8 | 11.8 | 0.96 |  |  |  |  |  | 
CCOC(=O)c1c(-n2ccnc2)nc2ccc(Br)cc2c1N1CCN(c2ccccc2NS(=O)(=O)c2ccccc2F)CC1 | 4.87 | 2.41 | 0.86 | 0.05 | 0.144 |  | inactive |  |  | 
CCOC(=O)c1c(-n2ccnc2)nc2ccc(Br)cc2c1N1CCN(c2ccccc2NS(=O)(=O)c2ccc(C(F)(F)F)cc2)CC1 | 2.99 | 0.99 | 0.21 | 0.01 | 0.138 | 85.1 | inactive | 26.8 | 4.2 | 
CCOC(=O)c1c(-n2ccnc2)nc2ccc(Br)cc2c1N1CCN(C(=O)OC(C)(C)C)CC1 | 14.2 | 12.2 | 16 | 2.11 |  |  |  |  |  | 
CCOC(=O)c1c(-n2ccnc2)nc2ccc(Br)cc2c1N1CCN(c2ccccc2[N+](=O)[O-])CC1 | 10.1 | 6.09 | 4.43 | 0.28 |  |  |  |  |  | 
CCOC(=O)c1c(-n2ccnc2)nc2ccc(Br)cc2c1N1CCN(c2ccccc2NC(=O)c2cc(F)ccc2I)CC1 | 6.98 | 4.3 | 2.18 | 0.11 |  |  |  |  |  | 
CCOC(=O)c1c(-n2ccnc2)nc2ccc(Br)cc2c1N1CCN(c2ccccc2NS(=O)(=O)c2ccc(I)cc2)CC1 | 9.18 | 5.6 | 2.88 | 0.29 |  |  |  |  |  | 
CCOC(=O)c1c(-n2ccnc2)nc2ccc(Br)cc2c1N1CCN(c2ccccc2NS(=O)(=O)c2cccc(C#N)c2)CC1 | 9.22 | 5.99 | 4.3 | 0.38 |  |  |  |  |  | 
CCOC(=O)c1c(-n2ccnc2)nc2ccc(Br)cc2c1N1CCN(c2ccccc2NS(=O)(=O)c2ccc(Br)cc2)CC1 | 8.22 | 5.02 | 2.86 | 0.22 |  |  |  |  |  | 
CCOC(=O)c1c(-n2ccnc2)nc2ccc(Br)cc2c1N1CCN(c2ccccc2NC(=O)C2CC(=O)C2)CC1 | 11 | 7.94 | 0.11 | 0.1 |  |  |  |  |  | 
COc1cc2ncc(C#N)c(Nc3cccc(Br)c3)c2cc1OC |  |  |  |  |  |  |  |  |  | 0.0075
CCOC(=O)c1c(-n2ccnc2)nc2ccc(Br)cc2c1N1CCN(c2ccccc2N)CC1 | 16.8 | 11.5 | 13.1 | 0.97 |  |  |  |  |  | 
CCOC(=O)c1c(-n2ccnc2)nc2ccc(Br)cc2c1N1CCN(c2ccccc2NS(=O)(=O)c2ccc(C#N)cc2)CC1 | 9.11 | 5.82 | 4.12 | 0.33 |  |  |  |  |  | 
CCOC(=O)c1c(-n2ccnc2)nc2ccc(Br)cc2c1N1CCN(c2ccccc2NS(=O)(=O)C2CC2)CC1 | 11.1 | 7.84 | 7.16 | 0.67 |  |  |  |  |  | 
C=CC(=O)Nc1cc(Nc2nccc(-c3cn(C)c4ccccc34)n2)c(OC)cc1N(C)CCN(C)C [OSIMERTINIB] | 2.67 | […] | […] | […] |  |  |  |  |  | 
CCOC(=O)c1c(-n2ccnc2)nc2ccc(Br)cc2c1N1CCN(c2ccccc2NS(=O)(=O)c2ccc(S(C)(=O)=O)cc2)CC1 | 14.6 | 10.3 | 11.1 | 0.89 |  |  |  |  |  | 
CCOC(=O)c1c(-n2ccnc2)nc2ccc(Br)cc2c1N1CCNCC1 | 16.2 | 11.4 | 15.2 | 2.45 |  |  |  |  |  | 
CCOC(=O)c1c(-n2ccnc2)nc2ccc(Br)cc2c1N1CCN(c2ccccc2NS(=O)(=O)c2ccc(F)c(F)c2)CC1 | 3.09 | 1.09 | 0.77 | 0.099 | 0.159 | 45.8 |  |  |  | 
N#Cc1c(-c2ccc3ncc(C(N)=O)c(Nc4cccc(Br)c4)c3c2)csc1N |  |  |  |  |  |  |  |  |  | 0.49
